This note sets out measurements from ChEMBL document CHEMBL1201862, “PubChem BioAssay data set” (2004).

Activity calls are given as the source filed them.

The target in assay [1] is Heat shock protein HSP 90-alpha (Homo sapiens, UniProt P07900). In kind it is functional, organism-based.
The nature of assay [2]: reduction of Shn3 3'UTR-driven luciferase in osteoblasts – cell-based, Clone20 osteoblasts, firefly luciferase, cherry-picked, dose response (AID 624132).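 Further: firefly luciferase luminescence from reporter carrying the Shn3 3'UTR in osteoblasts.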 It counts as functional.
Assay [3] can be described thus: cells. It counts as functional, cell-based.
A short description of assay [4]: THP-1 cell cytotoxicity, dose response, cytotoxicity control for non-replicating M. tuberculosis project (AID 489025). It counts as functional.
Assay [5] concerns the target T1, Serine/threonine-protein phosphatase (Candida dubliniensis (strain CD36 / CBS 7987 / NCPF 3949 / NRRLY-17841) (Yeast), UniProt B9W6M3).
T1 sequence (B9W6M3 whole entry): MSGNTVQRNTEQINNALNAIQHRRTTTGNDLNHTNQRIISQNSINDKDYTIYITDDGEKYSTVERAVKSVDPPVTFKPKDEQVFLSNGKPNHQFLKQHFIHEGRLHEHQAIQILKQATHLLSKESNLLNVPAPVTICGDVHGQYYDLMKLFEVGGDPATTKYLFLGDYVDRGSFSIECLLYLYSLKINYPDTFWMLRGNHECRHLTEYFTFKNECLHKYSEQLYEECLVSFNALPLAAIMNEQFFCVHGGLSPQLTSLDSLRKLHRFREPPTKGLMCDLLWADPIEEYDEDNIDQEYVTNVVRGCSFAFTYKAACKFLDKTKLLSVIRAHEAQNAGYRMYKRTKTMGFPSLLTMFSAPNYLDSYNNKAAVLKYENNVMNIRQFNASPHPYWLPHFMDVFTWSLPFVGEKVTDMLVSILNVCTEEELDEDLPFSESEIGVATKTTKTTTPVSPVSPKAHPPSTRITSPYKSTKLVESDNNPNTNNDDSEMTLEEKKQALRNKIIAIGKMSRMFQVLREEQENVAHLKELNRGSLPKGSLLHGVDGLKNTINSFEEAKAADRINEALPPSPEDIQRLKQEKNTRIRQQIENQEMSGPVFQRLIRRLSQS
The assay can be described thus: blockers of CaCl2-induced CDRE-lacZ signaling – S. cerevisiae, luminescence, secondary, dose response (AID 2388).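 Further: yeast reporter cells carrying a calcineurin-responsive lacZ construct stimulated with calcium chloride; luminescent beta-galactosidase reporter signal in whole cells rather than isolated phosphatase activity; potency for inhibition where a drop in reporter signal means calcineurin blockade.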 In kind it is functional, cell-based.

For assay [6], the system named is Vero. Nature of the assay: cells. It counts as functional. The settings on record: Chlorocebus sabaeus.
Assay [7] is described as follows: HepG2 cell cytotoxicity, dose response, cytotoxicity control for non-replicating M. tuberculosis project (AID 489018). In kind it is functional. The settings on record: Mycobacterium tuberculosis.
Assay [8] is described as follows: MIN6 cell viability loss – mouse insulinoma, cytotoxicity control, dose response (AID 2122).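 Further: confirmatory high-throughput counterscreen run to flag cytotoxic compounds; mouse MIN-6 beta cells carrying an insulin promoter eGFP reporter.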 It counts as functional.
The nature of assay [9]: microbe, parasite or virus in culture. In kind it is functional. The settings on record: Mycobacterium tuberculosis.
Assay [10] relates to Vero. The assay can be described thus: viability of Vero cells under compound – cytotoxicity control for flavivirus capping enzyme inhibitors (AID 588742). Particulars: Chlorocebus sabaeus. It counts as functional.
Assay [11] has as its target T2, Replicative DNA helicase DnaB (Mycobacterium tuberculosis, UniProt P9WMR3).
T2 sequence (P9WMR3 whole entry): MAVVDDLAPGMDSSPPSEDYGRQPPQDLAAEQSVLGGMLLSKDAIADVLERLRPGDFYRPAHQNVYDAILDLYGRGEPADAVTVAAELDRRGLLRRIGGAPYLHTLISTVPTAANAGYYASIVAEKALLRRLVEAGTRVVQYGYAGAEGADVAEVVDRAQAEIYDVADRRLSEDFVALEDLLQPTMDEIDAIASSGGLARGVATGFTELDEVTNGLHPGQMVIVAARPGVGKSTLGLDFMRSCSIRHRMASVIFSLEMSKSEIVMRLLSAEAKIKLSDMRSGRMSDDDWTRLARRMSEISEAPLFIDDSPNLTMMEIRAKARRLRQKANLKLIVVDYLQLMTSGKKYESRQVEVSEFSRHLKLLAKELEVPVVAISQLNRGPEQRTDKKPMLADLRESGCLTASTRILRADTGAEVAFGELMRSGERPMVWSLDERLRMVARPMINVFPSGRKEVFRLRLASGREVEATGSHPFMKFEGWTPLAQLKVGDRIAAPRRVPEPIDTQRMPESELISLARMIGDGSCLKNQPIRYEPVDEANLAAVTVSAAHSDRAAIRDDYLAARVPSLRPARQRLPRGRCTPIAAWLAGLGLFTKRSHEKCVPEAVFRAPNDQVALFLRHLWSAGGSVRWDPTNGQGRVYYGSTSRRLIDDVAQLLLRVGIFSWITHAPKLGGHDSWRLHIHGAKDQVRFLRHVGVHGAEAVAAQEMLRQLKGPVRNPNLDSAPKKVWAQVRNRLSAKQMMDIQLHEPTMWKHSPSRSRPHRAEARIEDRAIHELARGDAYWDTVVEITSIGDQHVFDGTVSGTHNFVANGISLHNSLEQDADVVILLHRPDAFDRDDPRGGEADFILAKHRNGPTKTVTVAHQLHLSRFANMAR
The assay can be described thus: DnaB intein splicing inhibitors, dose response, biochemical, cell-free fluorescence (AID 449749). It counts as functional.

Assay [12] can be described thus: viability of PTEN-deleted HCT116 cells – cell-based, HCT116 PTEN knockout, dose response (AID 1047).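 Further: HCT116 colon tumor cells with PTEN knocked out; cells exposed to compound for 60 hours before readout; potency for loss of cell viability measured by luminescence.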 It counts as functional.
Assay [13] has as its target Peroxisome proliferator-activated receptor gamma/Nuclear receptor coactivator 3 (Homo sapiens, UniProt P37231). The assay can be described thus: TR-FRET dose response biochemical High Throughput Screening assay for agonists of the steroid receptor coactivator 3 (SRC-3) recruitment by the peroxisome proliferator-activated receptor gamma (PPAR gamma): non-selective agonists. [Related pubchem assays: 1301 (Confirmation screen.), 1048 (Primary screen.)]. In kind it is functional.

Assay [14] is described as follows: viability loss in CEM21 cells – cell-based, CellTiter-Glo luminescence, cherry-picked, cytotoxicity control for viral fusion inhibitor project, dose response (AID 652042).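 Further: potency for signal decrease meaning cytotoxicity.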 In kind it is functional. A general note: Cellular ATP, detected with luciferase, serves as a proxy for viable cell number.
Assay [15] addresses T3, Mitochondrial peptide methionine sulfoxide reductase (Bos taurus, UniProt P54149).
T3 sequence (P54149 whole entry): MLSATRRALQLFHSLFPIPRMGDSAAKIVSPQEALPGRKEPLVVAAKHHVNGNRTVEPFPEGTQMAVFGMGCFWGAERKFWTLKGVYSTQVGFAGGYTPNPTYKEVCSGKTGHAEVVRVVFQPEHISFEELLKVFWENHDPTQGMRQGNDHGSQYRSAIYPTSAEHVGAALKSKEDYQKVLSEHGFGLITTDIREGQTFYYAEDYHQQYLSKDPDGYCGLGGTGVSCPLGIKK
In kind it is functional.

Assay [16] can be described thus: off-target signal loss in HeLa-CEM21 co-culture – HeLa F-luc CTL cells, cherry-picked, counter-screen for HIV-1 Env fusion inhibitor project, dose response (AID 652040).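 Further: potency for signal decrease marking cytotoxic or nonspecific inhibition.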 In kind it is functional, cell-based. For orientation: A counterscreen serves to expose hits that act by an unwanted route or on another target.
Assay [17] is described as follows: HIV-1 AD8 envelope cell-cell fusion blockers – cherry-pick, dose response (AID 652062).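 Further: luciferase signal from cell-cell fusion driven by HIV-1 clade B AD8 Env; potency is for inhibitors of fusion seen as a drop in luminescence.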 It counts as functional, cell-based.
Assay [18] can be described thus: Luminescence-based counterscreen assay for KLF5 inhibitors: dose response cell-based high throughput screening assay to identify cytotoxic compounds using the IEC-6 intestinal epithelial cell line. [Related pubchem assays: 1700 (Primary screen.), 1834 (Confirmation screen.), 1858 (Summary AID.), 1905 (Counterscreen.)]. It counts as functional.
A short description of assay [19]: alpha-synuclein stem-loop luciferase translation blockers – H4 neuroglioma cells, luminescence, confirmation (AID 1988). In kind it is functional, cell-based.
Assay [20] concerns the target Paired box protein Pax-8 (Homo sapiens, UniProt Q06710). The assay can be described thus: PAX8 transcriptional activity inhibition in RMG-I – RMG-I cells, luciferase, cherry-pick, dose response (AID 687027).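 Further: luciferase reporter driven by Pax8 target thyroperoxidase promoter measured by SteadyGlo luminescence.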 In kind it is functional, cell-based.

Chain of Peroxisome proliferator-activated receptor gamma/Nuclear receptor coactivator 3 (P37231 whole entry): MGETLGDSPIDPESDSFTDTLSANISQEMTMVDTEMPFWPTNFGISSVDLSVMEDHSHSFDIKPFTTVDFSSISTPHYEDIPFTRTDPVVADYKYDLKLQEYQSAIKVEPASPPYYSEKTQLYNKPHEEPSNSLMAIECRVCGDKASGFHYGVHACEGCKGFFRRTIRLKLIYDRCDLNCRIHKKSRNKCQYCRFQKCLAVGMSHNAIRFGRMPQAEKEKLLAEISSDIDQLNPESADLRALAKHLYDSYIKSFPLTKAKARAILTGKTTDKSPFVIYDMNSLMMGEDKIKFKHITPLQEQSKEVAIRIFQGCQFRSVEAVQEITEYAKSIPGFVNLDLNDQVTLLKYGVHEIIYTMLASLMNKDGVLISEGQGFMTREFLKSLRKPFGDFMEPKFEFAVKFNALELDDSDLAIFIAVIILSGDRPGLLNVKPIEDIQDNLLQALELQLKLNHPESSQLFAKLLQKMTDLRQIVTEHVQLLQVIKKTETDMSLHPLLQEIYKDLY
Chain of Peroxisome proliferator-activated receptor gamma/Nuclear receptor coactivator 3 (Q9Y6Q9 whole entry, further chain): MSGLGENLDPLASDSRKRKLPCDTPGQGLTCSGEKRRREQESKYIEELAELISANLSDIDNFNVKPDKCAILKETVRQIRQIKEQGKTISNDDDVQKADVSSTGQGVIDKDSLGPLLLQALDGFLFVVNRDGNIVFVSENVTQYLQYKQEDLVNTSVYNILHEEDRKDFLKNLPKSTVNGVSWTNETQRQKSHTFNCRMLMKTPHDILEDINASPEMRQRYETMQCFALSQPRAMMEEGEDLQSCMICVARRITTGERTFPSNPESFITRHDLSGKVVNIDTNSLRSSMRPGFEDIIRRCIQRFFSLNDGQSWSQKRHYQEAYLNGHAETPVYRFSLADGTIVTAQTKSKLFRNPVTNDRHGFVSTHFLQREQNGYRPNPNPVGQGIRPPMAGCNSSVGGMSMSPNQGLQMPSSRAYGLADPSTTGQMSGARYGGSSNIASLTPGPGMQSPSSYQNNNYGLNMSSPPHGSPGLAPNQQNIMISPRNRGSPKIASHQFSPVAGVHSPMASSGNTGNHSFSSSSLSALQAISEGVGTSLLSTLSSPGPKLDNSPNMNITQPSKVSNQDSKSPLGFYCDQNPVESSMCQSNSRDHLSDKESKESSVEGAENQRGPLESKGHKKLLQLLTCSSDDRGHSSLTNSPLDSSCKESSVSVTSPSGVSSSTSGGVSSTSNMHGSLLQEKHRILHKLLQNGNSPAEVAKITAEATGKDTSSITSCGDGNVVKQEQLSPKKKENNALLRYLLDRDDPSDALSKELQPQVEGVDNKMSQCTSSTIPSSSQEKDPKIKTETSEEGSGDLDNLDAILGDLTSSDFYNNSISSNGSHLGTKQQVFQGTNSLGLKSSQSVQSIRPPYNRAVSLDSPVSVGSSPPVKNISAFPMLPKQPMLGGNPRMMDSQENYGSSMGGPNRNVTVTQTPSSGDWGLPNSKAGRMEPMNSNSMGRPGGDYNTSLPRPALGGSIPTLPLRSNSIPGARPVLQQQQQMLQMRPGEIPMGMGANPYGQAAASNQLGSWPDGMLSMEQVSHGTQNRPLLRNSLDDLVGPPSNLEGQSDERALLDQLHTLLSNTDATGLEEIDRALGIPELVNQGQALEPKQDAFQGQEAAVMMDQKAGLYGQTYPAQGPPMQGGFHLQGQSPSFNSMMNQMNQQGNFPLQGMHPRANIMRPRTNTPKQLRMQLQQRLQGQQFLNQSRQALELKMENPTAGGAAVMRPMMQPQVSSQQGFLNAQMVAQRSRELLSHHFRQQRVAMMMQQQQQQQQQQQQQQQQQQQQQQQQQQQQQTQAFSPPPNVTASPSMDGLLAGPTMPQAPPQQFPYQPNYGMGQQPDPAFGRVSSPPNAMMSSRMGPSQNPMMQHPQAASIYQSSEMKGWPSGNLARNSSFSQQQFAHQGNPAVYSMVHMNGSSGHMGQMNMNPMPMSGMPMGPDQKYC
Chain of Paired box protein Pax-8 (Q06710 whole entry): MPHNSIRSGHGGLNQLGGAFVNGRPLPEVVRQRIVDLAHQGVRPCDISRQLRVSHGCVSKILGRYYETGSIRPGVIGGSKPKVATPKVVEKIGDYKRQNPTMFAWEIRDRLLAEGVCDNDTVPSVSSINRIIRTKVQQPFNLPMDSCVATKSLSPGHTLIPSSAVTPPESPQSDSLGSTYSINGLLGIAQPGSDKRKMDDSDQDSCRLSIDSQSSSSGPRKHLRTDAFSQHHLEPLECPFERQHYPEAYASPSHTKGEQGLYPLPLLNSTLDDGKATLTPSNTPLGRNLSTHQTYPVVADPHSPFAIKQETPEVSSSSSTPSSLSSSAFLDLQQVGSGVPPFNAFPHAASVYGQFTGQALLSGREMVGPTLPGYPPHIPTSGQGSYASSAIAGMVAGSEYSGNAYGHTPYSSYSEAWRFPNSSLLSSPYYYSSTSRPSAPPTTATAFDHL

In general, AC50 refers to the concentration giving half of the maximal activity seen. One may read the EC50 as the concentration at which the effect is half-maximal. The term IC50 denotes the concentration at which inhibition is half-maximal. With `Oc1c(C(c2ccccc2Cl)N2CCCC2)ccc2cccnc12` (centres undefined), the values for the AC50 in assay [1] and in assay [2] were 3.34 µM (active) and 5.77 µM (active), respectively. In addition, the EC50 was > 350 µM (not active) in assay [3] and > 180 µM (inactive) in [5]. The CC50 in assay [4] was 9.54 µM (active); in [6], 17.1 µM (active); in assay [7], 17.6 µM (active); in [9], 30.5 µM (active). The IC50 in [8] is 4.59 µM (active).
For `[O-][N+]1=c2ccc(Nc3ccccc3)cc2=NC12CCCCC2`, the CC50 in [10] is 18.6 µM (active). Besides, in assay [11], the AC50 is > 380 µM (inactive). Also, the EC50 in [5] was > 180 µM (inactive); in assay [12] it was 1.9 µM (active); in assay [13] it was > 79.4 µM (not active).
Consider `CCc1ccc(S(=O)(=O)/N=C2\C=C(Nc3ccc(C(=O)O)cc3)C(=O)c3ccccc32)cc1`, for which the AC50 in [14] is 6.53 µM (active); in assay [11], > 380 µM (inconclusive); in assay [16] it was 1.29 µM (active); in assay [17] it was 3.52 µM (active). In addition, in assay [15], the half-maximal inhibitory concentration (IC50) is 5 µM (active).
Consider `COc1cccc(/C=N/Nc2ccc([N+](=O)[O-])cn2)c1O`, for which the AC50 in [1] is 3.85 µM (active); in assay [20], 6.41 µM (active). Besides, the EC50 in assay [3] is 5.16 µM (active); in [19], 0.54 µM (active). The IC50 in assay [18] was 16.2 µM (not active).
